In PubChem BioAssay (NCI):
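Interpolation was linear, between the two tested concentrations surrounding the appropriate level; five concentrations were tested over 48 hours in 96-well plates. Abbreviation: GI50, concentration required for 50% inhibition of growth. TGI is the concentration that stops growth completely.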

Columns and labels:
Test in all cases: inhibition of tumour cell growth, NCI panel, 48 h
[1] = tested on: MDA-N
[2] = tested on: IGROV1 ovarian
[3] = tested on: DU-145 prostate
[4] = tested on: HT29 colon
[5] = tested on: SR leukemia
[6] = tested on: SK-MEL-2 melanoma
[7] = tested on: MDA-MB-231 breast
[8] = tested on: HL-60(TB) leukemia
[9] = tested on: SF-539 CNS
[10] = tested on: OVCAR-8 ovarian
[11] = tested on: OVCAR-3 ovarian
[12] = tested on: UACC-62 melanoma
[13] = tested on: HOP-62 NSCLC
[14] = tested on: SN12C renal
[15] = tested on: NCI-H460 lung
[16] = tested on: A549 NSCLC
[17] = tested on: T-47D breast
[18] = tested on: NCI-H23 lung
[19] = tested on: HS 578T breast
[20] = tested on: HOP-92 NSCLC
[21] = tested on: EKVX NSCLC
[22] = tested on: CAKI-1 renal
[23] = tested on: PC-3 prostate
[24] = tested on: KM12 colon
[25] = tested on: UACC-257 melanoma
[26] = tested on: NCI-H226 lung
[27] = tested on: SNB-75 CNS
[28] = tested on: CCRF-CEM leukemia
[29] = tested on: NCI/ADR-RES ovarian
[30] = tested on: OVCAR-5 ovarian
[31] = tested on: ACHN renal
[32] = tested on: K-562 leukemia
[33] = tested on: HCC-2998 colon
[34] = tested on: HCT-15 colon
[35] = tested on: U251 CNS
[36] = tested on: COLO 205 colon
[37] = tested on: M14 melanoma
[38] = tested on: MALME-3M melanoma
[39] = tested on: RPMI-8226 leukemia
[40] = tested on: SF-295 CNS
[41] = tested on: TK-10 renal
[42] = tested on: SW-620 colon
[43] = tested on: A498 renal
[44] = tested on: MCF7 breast
[45] = tested on: SK-MEL-28 melanoma
[46] = tested on: SNB-19 CNS
[47] = tested on: LOX IMVI melanoma
[48] = tested on: SK-OV-3 ovarian
[49] = tested on: RXF 393 renal
[50] = tested on: 786-0 renal
[51] = tested on: UO-31 renal
[52] = tested on: MDA-MB-435
[53] = tested on: NCI-H522 lung
[54] = tested on: OVCAR-4 ovarian
[55] = tested on: SK-MEL-5 melanoma
[56] = tested on: HCT-116 colon
[57] = tested on: SF-268 CNS
[58] = tested on: MOLT-4 leukemia
[59] = tested on: BT-549 breast

## N=C1C=C/[N+](=C\C=CCO)C([O-])=N1
[1]
  GI50: > 1000 µM
  TGI: > 1000 µM

## CCn1c(-c2nonc2N)nc2c(C#CC(C)(C)O)nc(CN3CCCC3)cc21
[2]
  GI50: 9.23 µM
  TGI: > 25 µM
[3]
  GI50: > 25 µM
  TGI: > 25 µM
[4]
  GI50: > 25 µM
  TGI: > 25 µM
[5]
  GI50: > 25 µM
  TGI: > 25 µM
[6]
  GI50: > 25 µM
  TGI: > 25 µM
[7]
  GI50: > 25 µM
  TGI: > 25 µM
[8]
  GI50: > 25 µM
  TGI: > 25 µM
[9]
  GI50: 16.9 µM
  TGI: > 25 µM
[10]
  GI50: > 25 µM
  TGI: > 25 µM
[11]
  GI50: > 25 µM
  TGI: > 25 µM
[12]
  GI50: > 25 µM
  TGI: > 25 µM
[13]
  GI50: > 25 µM
  TGI: > 25 µM
[14]
  GI50: > 25 µM
  TGI: > 25 µM
[15]
  GI50: > 25 µM
  TGI: > 25 µM
[16]
  GI50: > 25 µM
  TGI: > 25 µM
[17]
  GI50: 6.84 µM
  TGI: > 25 µM
[18]
  GI50: > 25 µM
  TGI: > 25 µM
[19]
  GI50: 7.39 µM
  TGI: > 25 µM
[20]
  GI50: > 25 µM
  TGI: > 25 µM
[21]
  GI50: > 25 µM
  TGI: > 25 µM
[22]
  GI50: > 25 µM
  TGI: > 25 µM
[23]
  GI50: > 25 µM
  TGI: > 25 µM
[24]
  GI50: > 25 µM
  TGI: > 25 µM
[25]
  GI50: > 25 µM
  TGI: > 25 µM
[26]
  GI50: > 25 µM
  TGI: > 25 µM
[27]
  GI50: 8.29 µM
  TGI: > 25 µM
[28]
  GI50: 20.5 µM
  TGI: > 25 µM
[29]
  GI50: > 25 µM
  TGI: > 25 µM
[30]
  GI50: > 25 µM
  TGI: > 25 µM
[31]
  GI50: > 25 µM
  TGI: > 25 µM
[32]
  GI50: > 25 µM
  TGI: > 25 µM
[33]
  GI50: > 25 µM
  TGI: > 25 µM
[34]
  GI50: > 25 µM
  TGI: > 25 µM
[35]
  GI50: > 25 µM
  TGI: > 25 µM
[36]
  GI50: > 25 µM
  TGI: > 25 µM
[37]
  GI50: > 25 µM
  TGI: > 25 µM
[38]
  GI50: > 25 µM
  TGI: > 25 µM
[39]
  GI50: > 25 µM
  TGI: > 25 µM
[40]
  GI50: 10.9 µM
  TGI: > 25 µM
[41]
  GI50: 17.9 µM
  TGI: > 25 µM
[42]
  GI50: > 25 µM
  TGI: > 25 µM
[43]
  GI50: 1.39 µM
  TGI: 14.6 µM
[44]
  GI50: 20 µM
  TGI: > 25 µM
[45]
  GI50: > 25 µM
  TGI: > 25 µM
[46]
  GI50: > 25 µM
  TGI: > 25 µM
[47]
  GI50: > 25 µM
  TGI: > 25 µM
[48]
  GI50: > 25 µM
  TGI: > 25 µM
[49]
  GI50: 6.31 µM
  TGI: > 25 µM
[50]
  GI50: 18.7 µM
  TGI: > 25 µM
[51]
  GI50: > 25 µM
  TGI: > 25 µM
[52]
  GI50: > 25 µM
  TGI: > 25 µM
[53]
  GI50: 18.3 µM
  TGI: > 25 µM
[54]
  GI50: > 25 µM
  TGI: > 25 µM
[55]
  GI50: > 25 µM
  TGI: > 25 µM
[56]
  GI50: > 25 µM
  TGI: > 25 µM
[57]
  GI50: > 25 µM
  TGI: > 25 µM
[58]
  GI50: > 20.4 µM
  TGI: > 25 µM
[59]
  GI50: 18.8 µM
  TGI: > 25 µM

## Cc1ccc(S(=O)(=O)Nn2c(S)c(C#N)c(-c3ccc(N(C)C)cc3)c(C#N)c2=O)cc1
[2]
  TGI: 38.5 µM
[3]
  TGI: > 100 µM
[5]
  TGI: > 100 µM
[7]
  TGI: > 100 µM
[8]
  TGI: 79.6 µM
[9]
  TGI: 40.7 µM
[10]
  TGI: 44.9 µM
[12]
  TGI: > 100 µM
[14]
  TGI: 68.2 µM
[1]
  TGI: > 100 µM
[15]
  TGI: 39.3 µM
[16]
  TGI: > 100 µM
[18]
  TGI: 61.1 µM
[20]
  TGI: > 100 µM
[21]
  TGI: > 100 µM
[22]
  TGI: > 100 µM
[24]
  TGI: 52.2 µM
[25]
  TGI: > 100 µM
[26]
  TGI: 34.6 µM
[27]
  TGI: > 100 µM
[28]
  TGI: > 100 µM
[29]
  TGI: 97.2 µM
[30]
  TGI: > 100 µM
[31]
  TGI: > 100 µM
[32]
  TGI: > 100 µM
[33]
  TGI: > 100 µM
[34]
  TGI: 56.5 µM
[35]
  TGI: 55.6 µM
[36]
  TGI: 67.8 µM
[37]
  TGI: > 100 µM
[38]
  TGI: 80.6 µM
[39]
  TGI: 91.5 µM
[40]
  TGI: > 100 µM
[41]
  TGI: 76.2 µM
[42]
  TGI: 37.7 µM
[43]
  TGI: 80.6 µM
[44]
  TGI: > 100 µM
[45]
  TGI: 77.4 µM
[46]
  TGI: > 100 µM
[47]
  TGI: > 100 µM
[48]
  TGI: > 100 µM
[49]
  TGI: 88.3 µM
[50]
  TGI: > 100 µM
[51]
  TGI: 44.8 µM
[52]
  TGI: 60 µM
[53]
  TGI: 37.8 µM
[54]
  TGI: 43.1 µM
[55]
  TGI: 45.3 µM
[56]
  TGI: 90.5 µM
[58]
  TGI: > 100 µM
[59]
  TGI: 67.3 µM

## N[C@H]1C[C@@H]1c1ccc(-c2cccc(O)c2)cc1
[2]
  GI50: 30.8 µM
  TGI: > 100 µM
[3]
  GI50: 42.2 µM
  TGI: > 100 µM
[4]
  GI50: 34.7 µM
  TGI: > 100 µM
[5]
  GI50: 24.7 µM
  TGI: 65.2 µM
[6]
  GI50: 19 µM
  TGI: 52.6 µM
[7]
  GI50: 17.6 µM
  TGI: 44 µM
[8]
  GI50: 17.6 µM
  TGI: 44.9 µM
[9]
  GI50: 24.2 µM
  TGI: 98.4 µM
[10]
  GI50: 34 µM
  TGI: > 100 µM
[11]
  GI50: 38.9 µM
  TGI: > 100 µM
[12]
  GI50: 15.9 µM
  TGI: 35 µM
[13]
  GI50: 28.3 µM
  TGI: > 100 µM
[14]
  GI50: 34.5 µM
  TGI: > 100 µM
[15]
  GI50: 45.9 µM
  TGI: > 100 µM
[16]
  GI50: 50.6 µM
  TGI: > 100 µM
[17]
  GI50: 23 µM
  TGI: > 100 µM
[18]
  GI50: 37.6 µM
  TGI: > 100 µM
[19]
  GI50: 22.8 µM
  TGI: > 100 µM
[20]
  GI50: 11.9 µM
  TGI: 72 µM
[21]
  GI50: 27.2 µM
  TGI: > 100 µM
[22]
  GI50: 22.4 µM
  TGI: 82.9 µM
[23]
  GI50: 26.4 µM
  TGI: > 100 µM
[24]
  GI50: 29.2 µM
  TGI: 93.4 µM
[25]
  GI50: 23.4 µM
  TGI: 63.8 µM
[26]
  GI50: > 100 µM
  TGI: > 100 µM
[27]
  GI50: 11.7 µM
  TGI: 49 µM
[28]
  GI50: 29.3 µM
  TGI: > 100 µM
[29]
  GI50: 36.8 µM
  TGI: > 100 µM
[30]
  GI50: 37.5 µM
  TGI: > 100 µM
[31]
  GI50: 23.2 µM
  TGI: 93.3 µM
[32]
  GI50: 21 µM
  TGI: 76.1 µM
[33]
  GI50: 20 µM
  TGI: 67.2 µM
[34]
  GI50: 26.7 µM
  TGI: > 100 µM
[35]
  GI50: 34.7 µM
  TGI: > 100 µM
[36]
  GI50: 29.2 µM
  TGI: > 100 µM
[37]
  GI50: 15.7 µM
  TGI: 36.3 µM
[38]
  GI50: 14.2 µM
  TGI: 44.9 µM
[39]
  GI50: 19 µM
  TGI: 63 µM
[40]
  GI50: 28.1 µM
  TGI: > 100 µM
[41]
  GI50: 31.1 µM
  TGI: > 100 µM
[42]
  GI50: 32.1 µM
  TGI: > 100 µM
[43]
  GI50: 14.8 µM
  TGI: 69.6 µM
[44]
  GI50: 22.9 µM
  TGI: > 100 µM
[45]
  GI50: 24.3 µM
  TGI: 69.2 µM
[46]
  GI50: 53.8 µM
  TGI: > 100 µM
[47]
  GI50: 14.8 µM
  TGI: 29.7 µM
[48]
  GI50: 25.1 µM
  TGI: > 100 µM
[49]
  GI50: 17.1 µM
  TGI: > 100 µM
[50]
  GI50: 29.6 µM
  TGI: > 100 µM
[51]
  GI50: 17.7 µM
  TGI: 82.4 µM
[52]
  GI50: 22.6 µM
  TGI: 61.6 µM
[53]
  GI50: 15 µM
  TGI: 35.1 µM
[54]
  GI50: 28.9 µM
  TGI: > 100 µM
[55]
  GI50: 15.5 µM
  TGI: 30.2 µM
[56]
  GI50: 25 µM
  TGI: > 100 µM
[57]
  GI50: 27.5 µM
  TGI: > 100 µM
[58]
  GI50: 22.3 µM
  TGI: 74.5 µM
[59]
  GI50: 22.4 µM
  TGI: > 100 µM
